From article PMC7782793, “Hydroxamic acid-modified peptide microarrays for profiling isozyme-selective interactions and inhibition of histone deacetylases” (Nature Communications, 2021)
Values joined by “and” are separate entries in the source; they are usually repeats but may differ in a detail not shown here. Equal values may be shown once. Marks after values point to notes of the source that are not given here. Non-standard residues stand in square brackets, D forms with d. Residues, ends and D or L forms follow the SMILES beside them. *: point of attachment. Asu = N[C@@H](CCCCCC(=O)O)C(=O)O; NHOH = ON*

What was measured:
HDAC6 = target: T1, HDAC6 (Homo sapiens, UniProt Q9UBN7); experiment: HDAC inhibition assay (fluorogenic, Ac-Leu-Gly-Lys(Ac)-AMC); type: biochemical; details: HDAC6, replicates
T1 construct: HDAC6 (full length, BPS Bioscience, cat. #: 50056); purchased BPS Bioscience 50056
T1 sequence (Q9UBN7 1-1215): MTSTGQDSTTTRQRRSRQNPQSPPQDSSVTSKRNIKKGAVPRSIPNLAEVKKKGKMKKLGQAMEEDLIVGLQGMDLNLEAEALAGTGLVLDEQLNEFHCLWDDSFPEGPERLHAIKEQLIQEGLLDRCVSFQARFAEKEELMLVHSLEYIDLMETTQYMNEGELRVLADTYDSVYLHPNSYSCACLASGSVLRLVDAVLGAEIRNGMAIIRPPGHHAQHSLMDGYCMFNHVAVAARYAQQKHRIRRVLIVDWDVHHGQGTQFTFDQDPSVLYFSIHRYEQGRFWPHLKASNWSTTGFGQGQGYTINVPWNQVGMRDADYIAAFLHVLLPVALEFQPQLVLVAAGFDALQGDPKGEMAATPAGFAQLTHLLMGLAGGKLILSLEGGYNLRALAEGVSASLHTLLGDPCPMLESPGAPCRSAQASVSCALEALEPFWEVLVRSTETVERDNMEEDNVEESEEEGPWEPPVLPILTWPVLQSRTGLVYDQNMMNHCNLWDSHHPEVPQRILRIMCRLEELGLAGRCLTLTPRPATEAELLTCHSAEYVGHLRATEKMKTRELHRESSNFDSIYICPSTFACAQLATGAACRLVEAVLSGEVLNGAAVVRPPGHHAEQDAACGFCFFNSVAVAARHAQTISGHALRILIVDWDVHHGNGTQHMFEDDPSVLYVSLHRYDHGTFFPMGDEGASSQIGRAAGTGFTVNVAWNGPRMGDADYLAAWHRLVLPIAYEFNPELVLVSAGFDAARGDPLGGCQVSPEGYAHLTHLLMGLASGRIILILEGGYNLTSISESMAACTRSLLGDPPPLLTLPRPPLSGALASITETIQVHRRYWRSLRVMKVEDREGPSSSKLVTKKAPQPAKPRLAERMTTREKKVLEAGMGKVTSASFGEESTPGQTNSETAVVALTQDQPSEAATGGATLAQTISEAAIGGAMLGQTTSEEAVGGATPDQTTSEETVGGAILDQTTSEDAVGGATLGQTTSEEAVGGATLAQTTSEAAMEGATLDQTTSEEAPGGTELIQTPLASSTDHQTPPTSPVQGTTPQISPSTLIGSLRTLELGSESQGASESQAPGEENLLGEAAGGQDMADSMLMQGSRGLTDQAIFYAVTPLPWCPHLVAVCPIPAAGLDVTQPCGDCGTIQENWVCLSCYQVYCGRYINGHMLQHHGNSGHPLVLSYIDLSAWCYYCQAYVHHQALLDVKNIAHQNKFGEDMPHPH

HDAC8 [1] = target: T2, HDAC8 (Homo sapiens, UniProt Q9BY41); experiment: HDAC inhibition assay (fluorogenic, Ac-Leu-Gly-Lys(Tfa)-AMC); type: biochemical; details: for HDAC8 dose-response data (relative enzyme activity, replicate values), Fig. 6 + S. Fig. 10: two replicate columns per inhibitor; for HDAC8 dose-response data (relative enzyme activity), Fig. 6 + S. Fig. 10: duplicate columns
T2 construct: HDAC8 (full length, C-terminal His tag, BPS Bioscience, cat. #: 50008); purchased BPS Bioscience 50008
T2 sequence (Q9BY41 1-377): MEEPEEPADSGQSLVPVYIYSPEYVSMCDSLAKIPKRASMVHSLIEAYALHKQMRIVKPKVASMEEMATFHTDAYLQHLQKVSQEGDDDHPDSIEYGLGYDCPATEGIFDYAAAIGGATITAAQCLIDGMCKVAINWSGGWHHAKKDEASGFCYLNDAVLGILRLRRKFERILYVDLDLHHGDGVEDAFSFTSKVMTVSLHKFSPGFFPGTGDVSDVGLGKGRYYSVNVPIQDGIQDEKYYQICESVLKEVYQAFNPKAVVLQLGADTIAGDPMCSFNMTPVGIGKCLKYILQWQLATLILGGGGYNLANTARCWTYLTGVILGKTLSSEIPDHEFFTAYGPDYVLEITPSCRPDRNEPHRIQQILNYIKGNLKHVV

HDACs 1‒3 and 8 = experiment: HDAC inhibition assays, statements across several class I isozymes; type: biochemical, human; details: resynthesized peptides, from Ki
HDAC1 [2] = target: T3, HDAC1 (Homo sapiens, UniProt Q13547); experiment: HDAC inhibition assay (fluorogenic, Ac-Leu-Gly-Lys(Ac)-AMC); type: biochemical; details: for HDAC1 dose-response data (relative enzyme activity), Fig. 6 + S. Fig. 10: duplicate columns
T3 construct: HDAC1 (full length, C-terminal His tag, C-terminal FLAG tag, BPS Bioscience, cat. #: 50051); FLAG (C); purchased BPS Bioscience 50051
T3 sequence (Q13547 whole entry): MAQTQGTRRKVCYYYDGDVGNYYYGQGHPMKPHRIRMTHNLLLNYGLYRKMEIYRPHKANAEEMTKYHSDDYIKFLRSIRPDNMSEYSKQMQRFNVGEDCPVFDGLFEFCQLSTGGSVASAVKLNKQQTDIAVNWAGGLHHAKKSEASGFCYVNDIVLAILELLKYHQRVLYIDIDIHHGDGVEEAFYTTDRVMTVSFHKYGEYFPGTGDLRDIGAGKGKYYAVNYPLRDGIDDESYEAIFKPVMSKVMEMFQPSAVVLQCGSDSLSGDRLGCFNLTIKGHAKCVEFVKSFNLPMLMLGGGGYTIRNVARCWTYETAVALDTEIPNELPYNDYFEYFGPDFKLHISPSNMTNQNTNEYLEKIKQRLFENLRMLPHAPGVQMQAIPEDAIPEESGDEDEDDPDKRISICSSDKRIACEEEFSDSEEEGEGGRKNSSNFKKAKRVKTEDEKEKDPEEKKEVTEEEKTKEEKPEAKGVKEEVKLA

HDAC2 [3] = target: T4, HDAC2 (Homo sapiens, UniProt Q92769); experiment: as above; type: biochemical; details: for HDAC2 dose-response data (relative enzyme activity), Fig. 6 + S. Fig. 10: duplicate columns
T4 construct: HDAC2 (full length, C-terminal His tag, BPS Bioscience, cat. #: 50002); purchased BPS Bioscience 50002
T4 sequence (Q92769 whole entry): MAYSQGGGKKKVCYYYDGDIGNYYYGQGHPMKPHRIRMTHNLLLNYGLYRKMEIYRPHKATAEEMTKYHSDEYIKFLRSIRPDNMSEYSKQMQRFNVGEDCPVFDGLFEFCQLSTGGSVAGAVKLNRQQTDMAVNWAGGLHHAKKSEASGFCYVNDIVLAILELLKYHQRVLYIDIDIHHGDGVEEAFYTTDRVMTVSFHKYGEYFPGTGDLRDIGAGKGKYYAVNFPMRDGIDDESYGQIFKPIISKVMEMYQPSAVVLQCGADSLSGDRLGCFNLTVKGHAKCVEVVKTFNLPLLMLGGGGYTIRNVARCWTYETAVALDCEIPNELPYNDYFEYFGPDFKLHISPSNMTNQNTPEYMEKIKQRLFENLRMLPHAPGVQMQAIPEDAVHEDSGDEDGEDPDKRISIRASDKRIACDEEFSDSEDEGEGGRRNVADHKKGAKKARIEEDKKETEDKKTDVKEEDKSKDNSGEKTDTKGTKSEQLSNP

HDAC4 = target: T5, HDAC4 (Homo sapiens, UniProt P56524); experiment: HDAC inhibition assay (fluorogenic, Ac-Leu-Gly-Lys(Tfa)-AMC); type: biochemical; details: 2 internal replicates
T5 construct: purchased BPS Bioscience 50004
T5 sequence (P56524 627-1084): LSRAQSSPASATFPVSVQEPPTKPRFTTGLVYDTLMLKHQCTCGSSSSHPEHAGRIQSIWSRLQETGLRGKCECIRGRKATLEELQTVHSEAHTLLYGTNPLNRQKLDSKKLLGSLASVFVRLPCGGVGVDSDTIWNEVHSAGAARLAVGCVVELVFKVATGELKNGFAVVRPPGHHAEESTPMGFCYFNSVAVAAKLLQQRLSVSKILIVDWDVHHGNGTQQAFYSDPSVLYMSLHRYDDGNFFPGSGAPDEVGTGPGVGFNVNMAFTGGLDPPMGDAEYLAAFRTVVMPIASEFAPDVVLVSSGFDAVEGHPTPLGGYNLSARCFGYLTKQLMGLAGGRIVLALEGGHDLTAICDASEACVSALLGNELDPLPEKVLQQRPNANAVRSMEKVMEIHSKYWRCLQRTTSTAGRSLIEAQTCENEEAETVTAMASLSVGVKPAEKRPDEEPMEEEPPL

HDAC1 [4] = target: T3, HDAC1; experiment: Recombinant HDAC µSPOT microarray binding assay
HDAC3/NCoR2 = target: T6, HDAC3/NCoR2 (Homo sapiens, UniProt O15379); experiment: Recombinant HDAC µSPOT microarray binding assay;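 also: peptide spots on cellulose slides incubated with rising HDAC enzyme concentrations, imaged together, four-parameter logistic fit, EC50 is enzyme concentration giving half-maximal binding signal, two experiments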
T6 construct: HDAC3/NCoR2 (full length, C-terminal His tag, NCoR2 N-terminal GST tag); purchased BPS Bioscience 50003
T6 sequence (O15379 whole entry): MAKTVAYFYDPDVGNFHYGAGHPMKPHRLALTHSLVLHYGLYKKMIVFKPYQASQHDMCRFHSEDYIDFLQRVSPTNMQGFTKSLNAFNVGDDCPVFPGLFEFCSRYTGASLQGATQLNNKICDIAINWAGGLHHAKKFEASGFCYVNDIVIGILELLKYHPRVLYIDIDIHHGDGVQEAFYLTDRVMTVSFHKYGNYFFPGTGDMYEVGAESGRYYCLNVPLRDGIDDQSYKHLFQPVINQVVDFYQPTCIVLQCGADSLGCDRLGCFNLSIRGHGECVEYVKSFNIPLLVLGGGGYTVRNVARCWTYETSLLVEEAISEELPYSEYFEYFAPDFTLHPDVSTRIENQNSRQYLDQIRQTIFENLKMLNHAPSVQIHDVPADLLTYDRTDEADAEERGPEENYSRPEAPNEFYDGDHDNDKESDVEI
T6 sequence (Q9Y618 389-480 partner limits assumed): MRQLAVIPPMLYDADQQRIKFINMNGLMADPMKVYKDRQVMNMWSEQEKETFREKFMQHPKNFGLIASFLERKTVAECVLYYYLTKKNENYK
Description: Experiments were performed twice, data were obtained with Array Analyze software (Active Motif), and data analysis and representation were performed with the GraphPad Prism 7 software. Outliers were curated manually and data were fitted to nonlinear regression [log(agonist) vs. response—variable slope (four parameters)]. […] Non-sigmoidal curves were denoted as not determined (N.D.) The pEC50 values were determined as the concentration of HDAC enzyme required for half-maximal binding signal.

HDAC8 [5] = target: T2, HDAC8; experiment: Recombinant HDAC µSPOT microarray binding assay
HDAC2 [6] = target: T4, HDAC2; experiment: Recombinant HDAC µSPOT microarray binding assay
[7] = log[inhibitor(M)] -10,5850266520292*, whole line marked with asterisks

SMILES: CC(=O)NCC(=O)NCC(=O)N[C@@H](CCCCCC(=O)NO)C(=O)N[C@@H](C)C(=O)N[C@@H](CCCNC(=N)N)C(=O)N[C@@H](C)C(=O)N[C@@H](CCCCN)C(=O)N[C@@H](C)C(=O)N[C@@H](CCCCN)C(=O)N[C@H](C(=O)N[C@@H](CCCNC(=N)N)C(=O)N[C@@H](CO)C(=O)N[C@@H](CO)C(=O)N[C@@H](CCCNC(=N)N)C(=O)N[C@@H](C)C(=O)NCC(=O)N[C@@H](Cc1c[nH]c2ccccc12)C(N)=O)[C@@H](C)O [9a] (Ac-GG[Asu](NHOH)ARAKAKTRSSRAGW-NH2)
- residual enzymatic activity relative to control wells (HDAC6; log[inhibitor(M)] -4.30103): 0.99 and 1.47
- residual enzymatic activity relative to control wells (HDAC6; log[inhibitor(M)] -5): 0.54 and 1.15
- residual enzymatic activity relative to control wells (HDAC6; log[inhibitor(M)] -5.69897): 2.15 and 1.92
- residual enzymatic activity relative to control wells (HDAC6; log[inhibitor(M)] -6.39794): 7.05 and 5.56
- residual enzymatic activity relative to control wells (HDAC6; log[inhibitor(M)] -7.09691): 24.41 and 17.7
- residual enzymatic activity relative to control wells (HDAC6; log[inhibitor(M)] -7.79588): 54.41 and 42.53
- residual enzymatic activity relative to control wells (HDAC6; log[inhibitor(M)] -8.49485): 80.22 and 64.16
- residual enzymatic activity relative to control wells (HDAC6; log[inhibitor(M)] -9.19382): 93.97 and 80.87
- residual enzymatic activity relative to control wells (HDAC6; log[inhibitor(M)] -9.89279): 97.61 and 89.51
- residual enzymatic activity relative to control wells (HDAC6; log[inhibitor(M)] -10.585): 98,6* and 92,44*
- Ki (HDAC8 [1]): 5.57 ± 0.13 µM
- HDAC8 dose-response data (relative enzyme activity, replicate values), Fig. 6 + S. Fig. 10 (HDAC8 [1]; Inhibitor conc [M] -8.49485 (log)): 101.387 and 98.0647
- HDAC8 dose-response data (relative enzyme activity, replicate values), Fig. 6 + S. Fig. 10 (HDAC8 [1]; Inhibitor conc [M] -9.19382 (log)): 105.308 and 102.184
- HDAC8 dose-response data (relative enzyme activity, replicate values), Fig. 6 + S. Fig. 10 (HDAC8 [1]; Inhibitor conc [M] given as -7.09691 (log)): 100.377 and 94.2492
- HDAC8 dose-response data (relative enzyme activity, replicate values), Fig. 6 + S. Fig. 10 (HDAC8 [1]; Inhibitor conc [M] given as -7.79588 (log)): 101.512 and 95.1709
- HDAC8 dose-response data (relative enzyme activity, replicate values), Fig. 6 + S. Fig. 10 (HDAC8 [1]; Inhibitor conc [M] given as -9.89279 (log)): 102.446 and 100.014
- HDAC8 dose-response data (relative enzyme activity, replicate values), Fig. 6 + S. Fig. 10 (HDAC8 [1]; Inhibitor conc [M] given as -10.585 (log)): 102,003* and 99,4628*
- HDAC8 dose-response data (relative enzyme activity), Fig. 6 + S. Fig. 10 (HDAC8 [1]; Inhibitor conc [M] -4.30103): 8.643 and 13.2074
- HDAC8 dose-response data (relative enzyme activity), Fig. 6 + S. Fig. 10 (HDAC8 [1]; Inhibitor conc [M] -5): 41.9349 and 42.6215
- HDAC8 dose-response data (relative enzyme activity), Fig. 6 + S. Fig. 10 (HDAC8 [1]; Inhibitor conc [M] -5.69897): 76.1615 and 76.0658
- HDAC8 dose-response data (relative enzyme activity), Fig. 6 + S. Fig. 10 (HDAC8 [1]; Inhibitor conc [M] -6.39794): 95.4429 and 93.9691
- selectivity against HDACs 1‒3 versus HDAC8 (HDACs 1‒3 and 8): over 100 fold
- Ki (HDAC1 [2]): 0.0311 ± 0.0002 µM
- HDAC1 dose-response data (relative enzyme activity), Fig. 6 + S. Fig. 10 (HDAC1 [2]; log[inhibitor(M)] -5.69897): 7.627 and 13.3733
- HDAC1 dose-response data (relative enzyme activity), Fig. 6 + S. Fig. 10 (HDAC1 [2]; log[inhibitor(M)] -6.39794): 29.353 and 31.2435
- HDAC1 dose-response data (relative enzyme activity), Fig. 6 + S. Fig. 10 (HDAC1 [2]; log[inhibitor(M)] -7.09691): 58.5172 and 64.5613
- HDAC1 dose-response data (relative enzyme activity), Fig. 6 + S. Fig. 10 (HDAC1 [2]; log[inhibitor(M)] -7.79588): 95.7003 and 88.0669
- HDAC1 dose-response data (relative enzyme activity), Fig. 6 + S. Fig. 10 (HDAC1 [2]; log[inhibitor(M)] -8.49485): 105.543 and 108.963
- HDAC1 dose-response data (relative enzyme activity), Fig. 6 + S. Fig. 10 (HDAC1 [2]; log[inhibitor(M)] -9.19382): 98.3062 and 98.503
- HDAC1 dose-response data (relative enzyme activity), Fig. 6 + S. Fig. 10 (HDAC1 [2]; log[inhibitor(M)] -9.89279): 101.14 and 97.4578
- HDAC1 dose-response data (relative enzyme activity), Fig. 6 + S. Fig. 10 (HDAC1 [2]; [7]): 103,131* and 101,221*
- HDAC2 dose-response data (relative enzyme activity), Fig. 6 + S. Fig. 10 (HDAC2 [3]; log[inhibitor(M)] -5): 5.281 and 8.057
- HDAC2 dose-response data (relative enzyme activity), Fig. 6 + S. Fig. 10 (HDAC2 [3]; log[inhibitor(M)] -5.69897): 15.9037 and 16.112
- HDAC2 dose-response data (relative enzyme activity), Fig. 6 + S. Fig. 10 (HDAC2 [3]; log[inhibitor(M)] -7.79588): 105.562 and 90.7957
- HDAC2 dose-response data (relative enzyme activity), Fig. 6 + S. Fig. 10 (HDAC2 [3]; [7]): 99,9428* and 99,2519*
- Ki (HDAC2 [3]; resynthesized peptide in solution, Cheng-Prusoff, n = 2): 0.048 ± 0.0005 µM
- residual enzymatic activity relative to control wells (HDAC4; inhibitor 5 µM): 94.96
- remaining activity at 5 µM (HDAC4; inhibitor 5 µM, read-out: residual enzymatic activity relative to control wells): 97.8%
- residual enzymatic activity relative to control wells (HDAC4; inhibitor 50 µM): 54.4
- remaining activity at 50 µM (HDAC4; inhibitor 50 µM, read-out: residual enzymatic activity relative to control wells): 57.5%
- EC50 (HDAC1 [4]): > 0.0251 µM
- EC50 (HDAC3/NCoR2): 0.00603 µM
- EC50 (HDAC8 [5]): > 0.0251 µM
- EC50 (HDAC2 [6]): 0.00195 µM
